Results published in PubChem BioAssay (NCI).
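Following 48 hours of exposure in 96-well plates, responses at five concentrations were used to interpolate endpoints linearly. Abbreviation: GI50, concentration required for 50% inhibition of growth. At the TGI there is no net growth.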

What was measured:
Assay in all cases: NCI anticancer screen, dose series, 48 h
SK-OV-3 ovarian = system: SK-OV-3 ovarian
UO-31 renal = system: UO-31 renal
OVCAR-4 ovarian = system: OVCAR-4 ovarian
HS 578T breast = system: HS 578T breast
UACC-62 melanoma = system: UACC-62 melanoma
HCT-116 colon = system: HCT-116 colon
BT-549 breast = system: BT-549 breast
HL-60(TB) leukemia = system: HL-60(TB) leukemia
NCI-H226 lung = system: NCI-H226 lung
COLO 205 colon = system: COLO 205 colon
SK-MEL-28 melanoma = system: SK-MEL-28 melanoma
UACC-257 melanoma = system: UACC-257 melanoma
CAKI-1 renal = system: CAKI-1 renal
NCI-H460 lung = system: NCI-H460 lung
OVCAR-8 ovarian = system: OVCAR-8 ovarian
SW-620 colon = system: SW-620 colon
RPMI-8226 leukemia = system: RPMI-8226 leukemia
MOLT-4 leukemia = system: MOLT-4 leukemia
TK-10 renal = system: TK-10 renal
MCF7 breast = system: MCF7 breast
RXF 393 renal = system: RXF 393 renal
MALME-3M melanoma = system: MALME-3M melanoma
PC-3 prostate = system: PC-3 prostate
M14 melanoma = system: M14 melanoma
HT29 colon = system: HT29 colon
SNB-75 CNS = system: SNB-75 CNS
NCI-H522 lung = system: NCI-H522 lung
A549 NSCLC = system: A549 NSCLC
786-0 renal = system: 786-0 renal
SF-295 CNS = system: SF-295 CNS
SF-539 CNS = system: SF-539 CNS
SR leukemia = system: SR leukemia
HCC-2998 colon = system: HCC-2998 colon
LOX IMVI melanoma = system: LOX IMVI melanoma
HOP-62 NSCLC = system: HOP-62 NSCLC
OVCAR-5 ovarian = system: OVCAR-5 ovarian
DU-145 prostate = system: DU-145 prostate
T-47D breast = system: T-47D breast
EKVX NSCLC = system: EKVX NSCLC
SK-MEL-2 melanoma = system: SK-MEL-2 melanoma
ACHN renal = system: ACHN renal
KM12 colon = system: KM12 colon
SN12C renal = system: SN12C renal
SF-268 CNS = system: SF-268 CNS
CCRF-CEM leukemia = system: CCRF-CEM leukemia
NCI-H23 lung = system: NCI-H23 lung
MDA-MB-231 breast = system: MDA-MB-231 breast
SNB-19 CNS = system: SNB-19 CNS
HOP-92 NSCLC = system: HOP-92 NSCLC
SK-MEL-5 melanoma = system: SK-MEL-5 melanoma
IGROV1 ovarian = system: IGROV1 ovarian
MDA-MB-435 = system: MDA-MB-435
K-562 leukemia = system: K-562 leukemia
NCI/ADR-RES ovarian = system: NCI/ADR-RES ovarian
U251 CNS = system: U251 CNS
HCT-15 colon = system: HCT-15 colon

Compound CS(=O)(=O)Nc1cc(-c2ccc3ncc(C#N)c(NCc4cccc(F)c4)c3c2)cnc1Cl has a GI50 (SK-OV-3 ovarian) of 263 nM, a TGI (SK-OV-3 ovarian) of 1760 nM and a GI50 (UO-31 renal) of 162 nM. For the same compound, the TGI (UO-31 renal) was greater than 21500 nM, the GI50 (OVCAR-4 ovarian) was 309 nM and the TGI (OVCAR-4 ovarian) was greater than 27700 nM. The GI50 (HS 578T breast) was 51.3 nM, the TGI (HS 578T breast) was 451 nM and the GI50 (UACC-62 melanoma) was 121 nM. For the same compound, the TGI (UACC-62 melanoma) was 1190 nM, the GI50 (HCT-116 colon) was 277 nM and the TGI (HCT-116 colon) was 1480 nM. For the same compound, the GI50 (BT-549 breast) was 73.6 nM, the TGI (BT-549 breast) was 678 nM and the GI50 (HL-60(TB) leukemia) was 330 nM. It also gave a TGI (HL-60(TB) leukemia) of 4450 nM, a GI50 (NCI-H226 lung) of 363 nM and a TGI (NCI-H226 lung) of 22800 nM. It also gave a GI50 (COLO 205 colon) of 357 nM, a TGI (COLO 205 colon) of 1650 nM and a GI50 (SK-MEL-28 melanoma) of 191 nM. For the same compound, the TGI (SK-MEL-28 melanoma) was 4690 nM, the GI50 (UACC-257 melanoma) was 335 nM and the TGI (UACC-257 melanoma) was 7140 nM. The GI50 (CAKI-1 renal) was 163 nM, the TGI (CAKI-1 renal) was 2040 nM and the GI50 (NCI-H460 lung) was 509 nM. The TGI (NCI-H460 lung) was 11400 nM, the GI50 (OVCAR-8 ovarian) was 366 nM and the TGI (OVCAR-8 ovarian) was 16400 nM. For the same compound, the GI50 (SW-620 colon) was 344 nM, the TGI (SW-620 colon) was 10300 nM and the GI50 (RPMI-8226 leukemia) was 287 nM. For the same compound, the TGI (RPMI-8226 leukemia) was 2160 nM, the GI50 (MOLT-4 leukemia) was 218 nM and the TGI (MOLT-4 leukemia) was 1980 nM. The GI50 (TK-10 renal) was 141 nM, the TGI (TK-10 renal) was 1220 nM and the GI50 (MCF7 breast) was 118 nM. The TGI (MCF7 breast) was 9850 nM, the GI50 (RXF 393 renal) was 110 nM and the TGI (RXF 393 renal) was 784 nM. The GI50 (MALME-3M melanoma) was 79.3 nM, the TGI (MALME-3M melanoma) was 559 nM and the GI50 (PC-3 prostate) was 284 nM. For the same compound, the TGI (PC-3 prostate) was 5710 nM, the GI50 (M14 melanoma) was 254 nM and the TGI (M14 melanoma) was 5860 nM. The GI50 (HT29 colon) was 502 nM, the TGI (HT29 colon) was 4640 nM and the GI50 (SNB-75 CNS) was 34.3 nM. The TGI (SNB-75 CNS) was 448 nM, the GI50 (NCI-H522 lung) was 369 nM and the TGI (NCI-H522 lung) was 7860 nM. For the same compound, the GI50 (A549 NSCLC) was 695 nM, the TGI (A549 NSCLC) was 6800 nM and the GI50 (786-0 renal) was 310 nM. It also gave a TGI (786-0 renal) of 5520 nM, a GI50 (SF-295 CNS) of 237 nM and a TGI (SF-295 CNS) of 2430 nM. The GI50 (SF-539 CNS) was 195 nM, the TGI (SF-539 CNS) was 1850 nM and the GI50 (SR leukemia) was 112 nM. The TGI (SR leukemia) was 2240 nM, the GI50 (HCC-2998 colon) was 367 nM and the TGI (HCC-2998 colon) was 6560 nM. For the same compound, the GI50 (LOX IMVI melanoma) was 200 nM, the TGI (LOX IMVI melanoma) was 1110 nM and the GI50 (HOP-62 NSCLC) was 220 nM. It also gave a TGI (HOP-62 NSCLC) of 4150 nM, a GI50 (OVCAR-5 ovarian) of 473 nM and a TGI (OVCAR-5 ovarian) of 12000 nM. It also gave a GI50 (DU-145 prostate) of 336 nM, a TGI (DU-145 prostate) of 11800 nM and a GI50 (T-47D breast) of 63.5 nM. For the same compound, the TGI (T-47D breast) was 1460 nM, the GI50 (EKVX NSCLC) was 381 nM and the TGI (EKVX NSCLC) was 5130 nM. It also gave a GI50 (SK-MEL-2 melanoma) of 122 nM, a TGI (SK-MEL-2 melanoma) of 374 nM and a GI50 (ACHN renal) of 570 nM. The TGI (ACHN renal) was greater than 45100 nM, the GI50 (KM12 colon) was 347 nM and the TGI (KM12 colon) was 2610 nM. For the same compound, the GI50 (SN12C renal) was 278 nM, the TGI (SN12C renal) was 32400 nM and the GI50 (SF-268 CNS) was 196 nM. The TGI (SF-268 CNS) was 3610 nM, the GI50 (CCRF-CEM leukemia) was 164 nM and the TGI (CCRF-CEM leukemia) was 20400 nM. It also gave a GI50 (NCI-H23 lung) of 348 nM, a TGI (NCI-H23 lung) of 13600 nM and a GI50 (MDA-MB-231 breast) of 350 nM. For the same compound, the TGI (MDA-MB-231 breast) was 4960 nM, the GI50 (SNB-19 CNS) was 292 nM and the TGI (SNB-19 CNS) was 11000 nM. The GI50 (HOP-92 NSCLC) was 36.3 nM, the TGI (HOP-92 NSCLC) was 459 nM and the GI50 (SK-MEL-5 melanoma) was 179 nM. It also gave a TGI (SK-MEL-5 melanoma) of 403 nM, a GI50 (IGROV1 ovarian) of 122 nM and a TGI (IGROV1 ovarian) of 972 nM. It also gave a GI50 (MDA-MB-435) of 258 nM, a TGI (MDA-MB-435) of 9500 nM and a GI50 (K-562 leukemia) of 274 nM. For the same compound, the TGI (K-562 leukemia) was greater than 59300 nM, the GI50 (NCI/ADR-RES ovarian) was 1990 nM and the TGI (NCI/ADR-RES ovarian) was 40300 nM. For the same compound, the GI50 (U251 CNS) was 197 nM, the TGI (U251 CNS) was 2680 nM and the GI50 (HCT-15 colon) was 289 nM. For the same compound, the TGI (HCT-15 colon) was 11800 nM.
